Among the data in patent US20200308171A1, “BIFUNCTIONAL INHIBITORS WITH EGFR HAVING A E3 UBIQUITIN LIGASE MOIETY” (Hoffmann-La Roche Inc., priority 2017, published 2020) are DC50 values, retold here.

The target in the assay is T1, EGFR T790M/L858R/C797S (Homo sapiens, UniProt P00533, C797S/L858R/T790M).
T1 construct: expressed in transfected cells; host or cells: BaF3 (murine pro-B) cells stably transduced with pCDH lentiviral vector, PGK promoter
T1 sequence (P00533 25-1210 T790M/C797S/L858R): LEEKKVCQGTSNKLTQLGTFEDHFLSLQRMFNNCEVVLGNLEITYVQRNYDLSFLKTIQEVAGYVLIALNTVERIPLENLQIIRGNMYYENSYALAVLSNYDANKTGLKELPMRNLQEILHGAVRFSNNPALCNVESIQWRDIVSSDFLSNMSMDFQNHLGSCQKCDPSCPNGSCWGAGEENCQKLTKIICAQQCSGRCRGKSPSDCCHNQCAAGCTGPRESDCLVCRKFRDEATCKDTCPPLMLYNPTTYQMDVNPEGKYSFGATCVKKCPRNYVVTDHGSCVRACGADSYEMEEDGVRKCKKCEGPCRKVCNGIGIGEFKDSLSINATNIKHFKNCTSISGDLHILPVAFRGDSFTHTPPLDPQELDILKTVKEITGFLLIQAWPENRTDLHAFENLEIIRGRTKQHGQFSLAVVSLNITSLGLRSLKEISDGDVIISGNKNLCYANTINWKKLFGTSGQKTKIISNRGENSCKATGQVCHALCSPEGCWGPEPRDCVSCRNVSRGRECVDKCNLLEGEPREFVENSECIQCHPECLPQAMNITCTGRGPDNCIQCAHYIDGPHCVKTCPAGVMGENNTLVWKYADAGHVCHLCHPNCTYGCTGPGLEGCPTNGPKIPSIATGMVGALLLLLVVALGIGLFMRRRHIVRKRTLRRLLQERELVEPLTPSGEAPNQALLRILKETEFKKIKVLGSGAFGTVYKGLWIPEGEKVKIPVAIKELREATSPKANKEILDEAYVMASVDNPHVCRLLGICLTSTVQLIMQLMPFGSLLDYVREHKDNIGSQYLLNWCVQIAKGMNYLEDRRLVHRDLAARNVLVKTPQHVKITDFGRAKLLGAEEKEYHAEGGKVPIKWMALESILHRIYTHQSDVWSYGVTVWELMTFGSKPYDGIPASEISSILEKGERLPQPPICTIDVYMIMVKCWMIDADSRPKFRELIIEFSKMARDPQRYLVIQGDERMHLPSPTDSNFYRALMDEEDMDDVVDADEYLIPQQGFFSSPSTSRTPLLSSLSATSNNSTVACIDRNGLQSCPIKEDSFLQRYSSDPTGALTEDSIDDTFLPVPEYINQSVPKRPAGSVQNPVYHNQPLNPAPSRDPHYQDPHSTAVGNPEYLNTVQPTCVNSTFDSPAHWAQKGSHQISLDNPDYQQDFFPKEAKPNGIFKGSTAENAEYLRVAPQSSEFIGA
The assay can be described thus: EGFR Degradation Assay (Cellular), FRET quantification of total EGFR. It is filed as cell-based. As to conditions: BaF3 EGFR mutant cell line (EGFR T790M/L858R/C797S); 4-hour incubation; total EGFR FRET kit; top concentration 1 μM, 11 points; read-out: IC50 [nM] mutant EGFR degradation. Here is the method:
EGFR Degradation Assay (Cellular)
The BaF3 parental line was purchased from DSMZ and grown in RPMI media supplemented with 10% FBS and 10 ng/mL interleukin 3 (IL-3) (Thermo Fisher Scientific). EGFR mutants ([…]) were cloned into the pCDH lentiviral vector (SystemBio) under the control of a PGK promoter and confirmed by DNA sequencing. The resulting gene expression vector for each mutant was mixed with packaging vectors and cotransfected into 2×10E6 HEK293T cells (ATCC) in 10 mL of DMEM media to generate lentiviral particles according to the manufacturers protocol (Origene).
Three days post-transfection, the viral supernatant was harvested and filtered. In one well of a 12-well plate, 0.5 mL of viral supernatant was added to 2E6 Ba/F3 cells contained in 1.5 mL of RPMI media including 10% FBS, 10 ng/mL IL-3, and 5 μg/mL polybrene (Invitrogen). The plate was centrifuged at 2,000 rpm for 1 hour at room temperature and infected cells were kept in a tissue culture incubator overnight at 37° C. The cells were washed once in fresh BaF3 media and reseeded at 0.5E6 cells/well of a 12-well plate in media supplemented with 0.5 μg/mL puromycin. The cells were maintained in this media for 3 weeks. IL-3-independent, EGFR mutant transformed cells were routinely maintained in RPMI medium supplemented with 10% FBS.
RPMI 1640 no-phenol red medium and fetal bovine serum (FBS) were purchased from Gibco (Grand Island, N.Y., USA). EGFR total kit and EGFR phospho-Y1068 kit were purchased from Cisbio (Bedford, Mass., USA). BaF3 EGFR mutant cell lines (EGFR T790M/L858R/C797S) cell line was generated in house, according to the protocol reported above. Cell culture flasks and 384-well microplates were acquired from VWR (Radnor, Pa., USA).
EGFR degradation was determined based on quantification of FRET signal using EGFR total kit. The FRET signal detected correlates with total EGFR protein level in cells. Briefly, test compounds were added to the 384-well plate from a top concentration of 1 μM with 11 points, half log titration in quadruplicates. Then, BaF3 EGFR mutant cell lines (EGFR T790M/L858R/C797S) were added into 384-well plates at a cell density of 10000 cells per well. The plates were kept at 37° C. with 5% CO2 for 4 hours. After 4-hour incubation, 4× lysis buffer was added to the cells, and then microplate was agitated on plate shaker at 500 rpm for 30 minutes at room temperature. Next, total EGFR antibody solution was added to the cells and the cells were incubated for another 4 hours at room temperature. Finally, FRET signal was acquired on EnVision™ Multilabel Reader (PerkinElmer, Santa Clara, Calif., USA). The cells treated in the absence of the test compound were the negative control and lysis buffer with antibody solution only were the positive control.
For `COC1CCN(c2nccc(Nc3cc4c(cn3)c(N3CCC(C(=O)NC5CCN(CCCCCCNc6cccc7c6C(=O)N(C6CCC(=O)NC6=O)C7=O)CC5)C3)nn4C(C)C)n2)CC1` (racemic) [Example 6, (3RS)—N-[1-[6-[[2-[(3RS)-2,6-Dioxo-3-piperidyl]-1,3-dioxo-isoindolin-4-yl]amino]hexyl]-4-piperidyl]-1-[1-isopropyl-6-[[2-(4-methoxy-1-piperidyl)pyrimidin-4-yl]amino]pyrazolo[4,3-c]pyridin-3-yl]pyrrolidine-3-carboxamide], the DC50 came to 46 nM.

Regarding `COC1CCN(c2nccc(Nc3cc4c(cn3)c(C(=O)NC3CCN(CCCCCCNc5cccc6c5C(=O)N(C5CCC(=O)NC5=O)C6=O)CC3)cn4C3CCCC3)n2)CC1` (racemic) [Example 4, 1-Cyclopentyl-N-[1-[6-[[2-[(3RS)-2,6-dioxo-3-piperidyl]-1,3-dioxo-isoindolin-4-yl]amino]hexyl]-4-piperidyl]-6-[[2-(4-methoxy-1-piperidyl)pyrimidin-4-yl]amino]pyrrolo[3,2-c]pyridine-3-carboxamide], the DC50 was 38 nM.

Take `CO[C@H]1CCN(c2nccc(Nc3cc4c(cn3)c(C(=O)NC3CCN(CCCCCNc5cccc6c5C(=O)N(C5CCC(=O)NC5=O)C6=O)CC3)cn4C(C)C)n2)C[C@H]1F` (mixture of isomers) [Example 9, N-[1-[5-[[2-[(3RS)-2,6-Dioxo-3-piperidyl]-1,3-dioxo-isoindolin-4-yl]amino]pentyl]-4-piperidyl]-6-[[2-[(3R,4S)-3-fluoro-4-methoxy-1-piperidyl]pyrimidin-4-yl]amino]-1-isopropyl-pyrrolo[3,2-c]pyridine-3-carboxamide]: the DC50 stood at 26 nM.

With `CO[C@H]1CCN(c2nccc(Nc3cc4c(cn3)c(C(=O)NC3CCN(CCCCCCNc5cccc6c5C(=O)N(C5CCC(=O)NC5=O)C6=O)CC3)cn4C3CCCC3)n2)C[C@H]1F` (mixture of isomers) [Example 10, 1-Cyclopentyl-N-[1-[6-[[2-[(3RS)-2,6-dioxo-3-piperidyl]-1,3-dioxo-isoindolin-4-yl]amino]hexyl]-4-piperidyl]-6-[[2-[(3R,4S)-3-fluoro-4-methoxy-1-piperidyl]pyrimidin-4-yl]amino]pyrrolo[3,2-c]pyridine-3-carboxamide], the DC50 was 85 nM.

On to `CO[C@H]1CCN(c2nccc(Nc3cc4c(cn3)c(C(=O)NC3CCN(CCCOC5CCN(c6cccc7c6C(=O)N(C6CCC(=O)NC6=O)C7=O)CC5)CC3)cn4C(C)C)n2)C[C@H]1F` (mixture of isomers) [Example 17, N-[1-[3-[[1-[2-[(3RS)-2,6-Dioxo-3-piperidyl]-1,3-dioxo-isoindolin-4-yl]-4-piperidyl]oxy]propyl]-4-piperidyl]-6-[[2-[(3R,4S)-3-fluoro-4-methoxy-1-piperidyl]pyrimidin-4-yl]amino]-1-isopropyl-pyrrolo[3,2-c]pyridine-3-carboxamide], for which the DC50 was found to be 74 nM.

Turning to `COC1CCN(c2nccc(Nc3cc4c(cn3)c(C(=O)NC3CCN(CCCCCCNc5cccc6c5C(=O)N(C5CCC(=O)NC5=O)C6=O)CC3)cn4C(C)C)n2)CC1(F)F` (racemic) [Example 3, 6-[[2-[(4RS)-3,3-Difluoro-4-methoxy-1-piperidyl]pyrimidin-4-yl]amino]-N-[1-[6-[[2-[(3RS)-2,6-dioxo-3-piperidyl]-1,3-dioxo-isoindolin-4-yl]amino]hexyl]-4-piperidyl]-1-isopropyl-pyrrolo[3,2-c]pyridine-3-carboxamide], the DC50 came to 44 nM.

Regarding `CO[C@H]1CCN(c2nccc(Nc3cc4c(cn3)c(C(=O)NC3CCN(CCCCCNc5cccc6c5C(=O)N(C5CCC(=O)NC5=O)C6=O)CC3)cn4C3CCCC3)n2)C[C@H]1F` (mixture of isomers) [Example 11, 1-Cyclopentyl-N-[1-[5-[[2-[(3RS)-2,6-dioxo-3-piperidyl]-1,3-dioxo-isoindolin-4-yl]amino]pentyl]-4-piperidyl]-6-[[2-[(3R,4S)-3-fluoro-4-methoxy-1-piperidyl]pyrimidin-4-yl]amino]pyrrolo[3,2-c]pyridine-3-carboxamide], the DC50 was found to be 43 nM.

`CO[C@@H]1CCN(c2nccc(Nc3cc4c(cn3)c(C(=O)NC3CCN(CCCCCCNc5cccc6c5C(=O)N(C5CCC(=O)NC5=O)C6=O)CC3)cn4C(C)C)n2)C[C@@H]1F` (mixture of isomers) [Example 8, N-[1-[6-[[2-[(3RS)-2,6-Dioxo-3-piperidyl]-1,3-dioxo-isoindolin-4-yl]amino]hexyl]-4-piperidyl]-6-[[2-[(3S,4R)-3-fluoro-4-methoxy-1-piperidyl]pyrimidin-4-yl]amino]-1-isopropyl-pyrrolo[3,2-c]pyridine-3-carboxamide]: the DC50 was determined as 46 nM.

Take `CO[C@H]1CCN(c2nccc(Nc3cc4c(cn3)c(C(=O)NC3CCN(CCCCC5CCN(c6ccc7c(c6)C(=O)N(C6CCC(=O)NC6=O)C7=O)CC5)CC3)cn4C(C)C)n2)C[C@H]1F` (mixture of isomers) [Example 19, N-[1-[4-[1-[2-[(3RS)-2,6-Dioxo-3-piperidyl]-1,3-dioxo-isoindolin-5-yl]-4-piperidyl]butyl]-4-piperidyl]-6-[[2-[(3R,4S)(3S,4R)-3-fluoro-4-methoxy-1-piperidyl]pyrimidin-4-yl]amino]-1-isopropyl-pyrrolo[3,2-c]pyridine-3-carboxamide]: the DC50 was 73 nM.

Regarding `CO[C@H]1CCN(c2nccc(Nc3cc4c(cn3)c(C(=O)NC3CCN(CCC[C@H]5CC[C@H](Nc6cccc7c6C(=O)N(C6CCC(=O)NC6=O)C7=O)CC5)CC3)cn4C(C)C)n2)C[C@H]1F` (mixture of isomers) [Example 20, N-[1-[3-[4-[[2-[(3RS)-2,6-Dioxo-3-piperidyl]-1,3-dioxo-isoindolin-4-yl]amino]cyclohexyl]propyl]-4-piperidyl]-6-[[2-[(3R,4S)-3-fluoro-4-methoxy-l-piperidyl]pyrimidin-4-yl]amino]-1-isopropyl-pyrrolo[3,2-c]pyridine-3-carboxamide], the DC50 is 15 nM.
